Reference: PubChem BioAssay AID328 (DTP/NCI, 2004)
Several values for one entry are separate records, joined by “and”; a condition that tells them apart may be missing. Equal entries are not always repeated. Inconclusive results and toxic doses are left out.

Test system: BDF1 mice, P388 leukemia ip, median survival T/C
Assay: NCI In Vivo Anticancer Drug Screen. Data for tumor model P388 Leukemia (intraperitoneal) in B6D2F1 (BDF1) mice
Conditions: endpoint: median survival time, higher = longer survival
Procedure, shortened: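 Antitumour effect was judged in vivo: survival in drug-treated mice, normalised to that of vehicle-dosed controls, gives the reported T/C.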

[1] = dose: 25.0 mg/kg/injection, schedule: Q01DX009 (ip), vehicle: saline
[2] = dose: 50.0 mg/kg/injection, schedule: Q01DX009 (ip), vehicle: saline with Tween-80
[3] = dose: 200.0 mg/kg/injection, schedule: Q04DX003 (ip), vehicle: saline with Tween-80
[4] = dose: 100.0 mg/kg/injection, schedule: Q01DX009 (ip), vehicle: saline with Tween-80
[5] = dose: 100.0 mg/kg/injection, schedule: Q04DX003 (ip), vehicle: saline with Tween-80
[6] = dose: 200.0 mg/kg/injection, schedule: Q01DX009 (ip), vehicle: saline with Tween-80
[7] = dose: 400.0 mg/kg/injection, schedule: Q04DX003 (ip), vehicle: saline with Tween-80
[8] = dose: 100.0 mg/kg/injection, schedule: Q01DX001 (ip), vehicle: saline
[9] = dose: 200.0 mg/kg/injection, schedule: Q01DX001 (ip), vehicle: saline
[10] = dose: 400.0 mg/kg/injection, schedule: Q01DX001 (ip), vehicle: saline
[11] = dose: 50.0 mg/kg/injection, schedule: Q04DX003 (ip), vehicle: saline with Tween-80
[12] = dose: 25.0 mg/kg/injection, schedule: Q04DX003 (ip), vehicle: saline

Cc1ccc2scc3c4ccccc4nc-3c2c1
T/C (dose: 2.5 mg/kg/injection, schedule: Q01DX009 (ip), vehicle: saline): 94 % of control | T/C (dose: 5.0 mg/kg/injection, schedule: Q01DX009 (ip), vehicle: saline): 107 % of control | T/C (dose: 10.0 mg/kg/injection, schedule: Q01DX009 (ip), vehicle: saline): 114 % of control | T/C (dose: 12.5 mg/kg/injection, schedule: Q01DX009 (ip), vehicle: saline): 113 % of control and 124 % of control | T/C (dose: 20.0 mg/kg/injection, schedule: Q01DX009 (ip), vehicle: saline): 94 % of control | T/C [1]: 113 % of control and 124 % of control | T/C (dose: 56.25 mg/kg/injection, schedule: Q04DX003 (ip), vehicle: saline): 104 % of control | T/C (dose: 75.0 mg/kg/injection, schedule: Q01DX009 (ip), vehicle: saline): 100 % of control and 104 % of control | T/C (dose: 112.5 mg/kg/injection, schedule: Q01DX009 (ip), vehicle: saline): 96 % of control | T/C (dose: 112.5 mg/kg/injection, schedule: Q04DX003 (ip), vehicle: saline): 113 % of control

CC(=O)OCC1OC(n2cnc3c(=S)nc(N)[nH]c32)C(OC(C)=O)C1OC(C)=O (stereo not drawn)
T/C (dose: 3.5 mg/kg/injection, schedule: Q01DX009 (ip), vehicle: saline with Tween-80): 113 % of control | T/C (dose: 5.2 mg/kg/injection, schedule: Q01DX009 (ip), vehicle: saline with Tween-80): 122 % of control | T/C (dose: 12.0 mg/kg/injection, schedule: Q01DX009 (ip), vehicle: saline with Tween-80): 90 % of control | T/C (dose: 18.0 mg/kg/injection, schedule: Q01DX009 (ip), vehicle: saline with Tween-80): 100 % of control | T/C (dose: 26.0 mg/kg/injection, schedule: Q01DX009 (ip), vehicle: saline with Tween-80): 90 % of control | T/C (dose: 40.0 mg/kg/injection, schedule: Q01DX009 (ip), vehicle: saline with Tween-80): 90 % of control | T/C [2]: 90 % of control | T/C (dose: 132.0 mg/kg/injection, schedule: Q04DX003 (ip), vehicle: saline with Tween-80): 100 % of control | T/C [3]: 166 % of control

O=C1c2ccccc2C(=O)N1CCCn1c2ccccc2c2cnccc21
T/C [4]: 105 % of control | T/C [5]: 95 % of control | T/C [6]: 90 % of control | T/C [3]: 100 % of control | T/C (dose: 400.0 mg/kg/injection, schedule: Q01DX009 (ip), vehicle: saline with Tween-80): 110 % of control | T/C [7]: 90 % of control

Cc1cccnc1NS(=O)(=O)c1ccccc1
T/C [5]: 100 % of control | T/C [3]: 104 % of control | T/C [7]: 108 % of control

CN(C)C1C(=O)C(C(=O)NCNC(CCS(C)=O)C(=O)O)=C(O)C2(O)C(=O)C3=C(O)c4c(O)cccc4C(C)(O)C3CC12 (stereo not drawn)
T/C [8]: 100 % of control | T/C [9]: 90 % of control | T/C [10]: 86 % of control

O=[N+]([O-])c1ccc(-n2[nH]nnc2=S)cc1
T/C [11]: 107 % of control | T/C [5]: 104 % of control | T/C [7]: 95 % of control

Cc1ccc(OCC(O)CN2CCN(c3ccc(Cl)cc3)CC2)cc1 (stereo not drawn)
T/C (dose: 100.0 mg/kg/injection, schedule: Q04DX003 (ip), vehicle: saline sonified): 100 % of control | T/C (dose: 200.0 mg/kg/injection, schedule: Q04DX003 (ip), vehicle: saline sonified): 100 % of control | T/C (dose: 400.0 mg/kg/injection, schedule: Q04DX003 (ip), vehicle: saline sonified): 100 % of control

CCN(CC)P(=O)(N1CC1)N1CC1
T/C (dose: 16.5 mg/kg/injection, schedule: Q04DX003 (ip), vehicle: saline): 272 % of control | T/C [12]: 90 % of control

Fc1ccccc1C1=NCC(=S)N(CC(F)(F)F)c2ccc(Cl)cc21
T/C [2]: 100 % of control | T/C [4]: 96 % of control

CCC(C)(O)C(=O)OC1C(=O)OC2CC3C(C)CC(=O)C(O)C3(C)C3C4(O)OCC23C1C(C)C4O (stereo not drawn)
T/C (dose: 0.12 mg/kg/injection, schedule: Q01DX009 (ip), vehicle: saline with Tween-80): 121 % of control | T/C (dose: 0.25 mg/kg/injection, schedule: Q01DX009 (ip), vehicle: saline with Tween-80): 118 % of control | T/C (dose: 0.5 mg/kg/injection, schedule: Q01DX009 (ip), vehicle: saline with Tween-80): 116 % of control | T/C (dose: 1.0 mg/kg/injection, schedule: Q01DX009 (ip), vehicle: saline with Tween-80): 121 % of control | T/C (dose: 8.0 mg/kg/injection, schedule: Q01DX009 (ip), vehicle: saline with Tween-80): 122 % of control | T/C (dose: 16.0 mg/kg/injection, schedule: Q01DX009 (ip), vehicle: saline with Tween-80): 152 % of control

COc1cc(C=Nc2cc(Cl)c(Cl)c(Cl)c2)ccc1N(CCCl)CCCl
T/C (dose: 1.8 mg/kg/injection, schedule: Q01DX009 (ip), vehicle: Klucel (hydroxypropylcellulose) (HPC)): 150 % of control | T/C (dose: 2.7 mg/kg/injection, schedule: Q01DX009 (ip), vehicle: Klucel (hydroxypropylcellulose) (HPC)): 158 % of control | T/C (dose: 3.12 mg/kg/injection, schedule: Q01DX009 (ip), vehicle: Klucel (hydroxypropylcellulose) (HPC)): 195 % of control | T/C (dose: 4.1 mg/kg/injection, schedule: Q01DX009 (ip), vehicle: Klucel (hydroxypropylcellulose) (HPC)): 237 % of control and 163 % of control | T/C (dose: 6.25 mg/kg/injection, schedule: Q01DX009 (ip), vehicle: Klucel (hydroxypropylcellulose) (HPC)): 227 % of control and 240 % of control and 208 % of control | T/C (dose: 9.3 mg/kg/injection, schedule: Q01DX009 (ip), vehicle: Klucel (hydroxypropylcellulose) (HPC)): 254 % of control and 150 % of control | T/C (dose: 12.5 mg/kg/injection, schedule: Q01DX009 (ip), vehicle: Klucel (hydroxypropylcellulose) (HPC)): 204 % of control | T/C (dose: 25.0 mg/kg/injection, schedule: Q01DX009 (ip), vehicle: Klucel (hydroxypropylcellulose) (HPC)): 120 % of control | T/C (dose: 30.0 mg/kg/injection, schedule: Q04DX003 (ip), vehicle: Klucel (hydroxypropylcellulose) (HPC)): 186 % of control | T/C (dose: 45.0 mg/kg/injection, schedule: Q04DX003 (ip), vehicle: Klucel (hydroxypropylcellulose) (HPC)): 272 % of control

CC(C)Oc1ccc(C(=O)NS(=O)(=O)c2ccc(N)cc2)cc1
T/C [8]: 113 % of control | T/C [9]: 104 % of control | T/C [10]: 100 % of control

NC(=O)NC(c1ccccc1)C(NC(N)=O)c1ccccc1 (stereo not drawn)
T/C [2]: 110 % of control | T/C [4]: 104 % of control | T/C [6]: 91 % of control

COc1ccc(/C(C#N)=C2C=C(Cl)/C(=N/O)C=C/2Cl)cc1
T/C (dose: 100.0 mg/kg/injection, schedule: Q01DX001 (ip), vehicle: Klucel (hydroxypropylcellulose) (HPC)): 90 % of control | T/C (dose: 100.0 mg/kg/injection, schedule: Q01DX009 (ip), vehicle: Klucel (hydroxypropylcellulose) (HPC)): 95 % of control | T/C (dose: 200.0 mg/kg/injection, schedule: Q01DX001 (ip), vehicle: Klucel (hydroxypropylcellulose) (HPC)): 90 % of control | T/C (dose: 200.0 mg/kg/injection, schedule: Q01DX009 (ip), vehicle: Klucel (hydroxypropylcellulose) (HPC)): 87 % of control | T/C (dose: 400.0 mg/kg/injection, schedule: Q01DX001 (ip), vehicle: Klucel (hydroxypropylcellulose) (HPC)): 86 % of control | T/C (dose: 400.0 mg/kg/injection, schedule: Q01DX009 (ip), vehicle: Klucel (hydroxypropylcellulose) (HPC)): 104 % of control

ClC12CC3CC(CC(C3)C1)C2
T/C (dose: 50.0 mg/kg/injection, schedule: Q04DX003 (ip), vehicle: acetone): 104 % of control | T/C (dose: 100.0 mg/kg/injection, schedule: Q04DX003 (ip), vehicle: acetone): 113 % of control | T/C (dose: 200.0 mg/kg/injection, schedule: Q04DX003 (ip), vehicle: acetone): 109 % of control

CCC(CO)NC(=O)/C=C/c1ccc(Cl)cc1 (stereo not drawn)
T/C [6]: 91 % of control

CCOC(=O)Nc1cc(NC(C)CCCN(CC)CC)c2ncc(-c3ccccc3)nc2n1 (stereo not drawn) (tested in a mixture with another compound)
T/C [1]: 100 % of control | T/C [12]: 104 % of control | T/C (dose: 50.0 mg/kg/injection, schedule: Q01DX009 (ip), vehicle: saline): 100 % of control | T/C (dose: 50.0 mg/kg/injection, schedule: Q04DX003 (ip), vehicle: saline): 100 % of control | T/C (dose: 100.0 mg/kg/injection, schedule: Q01DX009 (ip), vehicle: saline): 104 % of control | T/C (dose: 100.0 mg/kg/injection, schedule: Q04DX003 (ip), vehicle: saline): 104 % of control

O=C1c2ccccc2C(=O)N1C1CCC(O)CC1 (stereo not drawn)
T/C (dose: 25.0 mg/kg/injection, schedule: Q01DX009 (ip), vehicle: saline with Tween-80): 109 % of control | T/C (dose: 25.0 mg/kg/injection, schedule: Q04DX003 (ip), vehicle: saline with Tween-80): 104 % of control | T/C [2]: 86 % of control | T/C [11]: 109 % of control | T/C [4]: 90 % of control | T/C [5]: 104 % of control

Nc1cc2ccccc2c(O)c1O
T/C (dose: 75.0 mg/kg/injection, schedule: Q04DX003 (ip), vehicle: saline sonified): 100 % of control | T/C (dose: 150.0 mg/kg/injection, schedule: Q04DX003 (ip), vehicle: saline sonified): 111 % of control | T/C (dose: 300.0 mg/kg/injection, schedule: Q04DX003 (ip), vehicle: saline sonified): 94 % of control
